For orientation: IC50 means the concentration that inhibits the measured activity by half. The term inhibition denotes the percentage by which the read-out fell short of the control.

Results on one molecule are retold here after ChEMBL document CHEMBL4831488, “Design, synthesis, docking, molecular dynamics and bioevaluation studies on novel N-methylpicolinamide and thienopyrimidine derivatives with inhibiting NF-κB and TAK1 activities: Cheminformatics tools RDKit applied in drug design” (Eur J Med Chem, 2021).

Assay [1] concerns HCT-116. Kind of assay: Cytotoxicity against human HCT-116 cells assessed as inhibition of cell growth measured after 72 hrs by MTT assay. The conditions noted are these: HCT-116, 72 h. Type of assay: functional, cell-based. On the technique in general: Formazan colour is commonly taken as a measure of viable cells.
Assay [2] relates to A549. The assay is described as follows: Cytotoxicity against human A549 cells assessed as inhibition of cell growth at 20 uM measured after 72 hrs by MTT assay relative to control. It counts as functional.
In assay [3] the test system is A549. Kind of assay: Cell cycle arrest in human A549 cells assessed as accumulation at G2/M phase at 0.6 uM measured after 24 hrs by PI staining based Flow cytometry method (reference value: 10.2%). It counts as functional. (Flow cytometry measures light scatter and fluorescence of single cells or particles in a stream.)
Assay [4] concerns A549. The assay is described as follows: Cell cycle arrest in human A549 cells assessed as accumulation at G0/G1 phase at 1.2 uM measured after 24 hrs by PI staining based Flow cytometry method (reference value: 55.54%). It counts as functional.
The subject of assay [5] is A549. The assay is described as follows: Induction of apoptosis in human A549 cells assessed as viable cells at 1.2 uM measured by annexinV-FITC/propidium iodide staining based flow cytometry analysis (reference value: 97.8%). The conditions noted are these: read-out: Activity. Type of assay: functional.
Assay [6] relates to A549. Kind of assay: Induction of apoptosis in human A549 cells assessed as early apoptotic cells at 1.2 uM measured by annexinV-FITC/propidium iodide staining based flow cytometry analysis (reference value: 1.17%). It counts as functional.
Assay [7] deals with T1, Nuclear factor NF-kappa-B complex (Homo sapiens) (UniProt Q00653+P19838+Q04206). The assay is described as follows: Inhibition of human NF-kB in human HCT-116 cells assessed as suppression of TNF-alpha induced p-65 expression at 0.5 to 5 uM pretreated with compounds for 24 hrs followed by TNF-alpha stimulation for 10 mins by Western blot analysis. It counts as cell-based. Particulars: dose 0.5-5 µM, time 1450.0 min.

The target in assay [8] is T1, Nuclear factor NF-kappa-B complex (Homo sapiens). Kind of assay: Inhibition of human NF-kB in human HCT-116 cells assessed as suppression of TNF-alpha induced IkBalpha phosphorylation at 0.5 to 5 uM pretreated with compounds for 24 hrs followed by TNF-alpha stimulation for 10 mins by Western blot analysis. Particulars: dose 0.5-5 µM, time 1450.0 min. It counts as cell-based. (In general: In western blotting, separated proteins are transferred to a membrane and probed.)

Assay [9] has the same target. The assay is described as follows: Inhibition of human NF-kB in human HCT-116 cells assessed as suppression of TNF-alpha induced TAK1 phosphorylation at 0.5 to 5 uM pretreated with compounds for 24 hrs followed by TNF-alpha stimulation for 10 mins by Western blot analysis. Type of assay: cell-based. The conditions noted are these: dose 0.5-5 µM, time 1450.0 min.
The target is the same in assay [10]. Kind of assay: Inhibition of human NF-kB in human A549 cells assessed as suppression of TNF-alpha induced p-65 phosphorylation at 0.5 to 5 uM pretreated with compounds for 24 hrs followed by TNF-alpha stimulation for 10 mins by Western blot analysis. The conditions noted are these: dose 0.5-5 µM, time 1450.0 min. It counts as cell-based.

Active and inactive are the calls of the source. The rule behind the calls is not given here.

T1 sequence (P19838 whole entry, looked up): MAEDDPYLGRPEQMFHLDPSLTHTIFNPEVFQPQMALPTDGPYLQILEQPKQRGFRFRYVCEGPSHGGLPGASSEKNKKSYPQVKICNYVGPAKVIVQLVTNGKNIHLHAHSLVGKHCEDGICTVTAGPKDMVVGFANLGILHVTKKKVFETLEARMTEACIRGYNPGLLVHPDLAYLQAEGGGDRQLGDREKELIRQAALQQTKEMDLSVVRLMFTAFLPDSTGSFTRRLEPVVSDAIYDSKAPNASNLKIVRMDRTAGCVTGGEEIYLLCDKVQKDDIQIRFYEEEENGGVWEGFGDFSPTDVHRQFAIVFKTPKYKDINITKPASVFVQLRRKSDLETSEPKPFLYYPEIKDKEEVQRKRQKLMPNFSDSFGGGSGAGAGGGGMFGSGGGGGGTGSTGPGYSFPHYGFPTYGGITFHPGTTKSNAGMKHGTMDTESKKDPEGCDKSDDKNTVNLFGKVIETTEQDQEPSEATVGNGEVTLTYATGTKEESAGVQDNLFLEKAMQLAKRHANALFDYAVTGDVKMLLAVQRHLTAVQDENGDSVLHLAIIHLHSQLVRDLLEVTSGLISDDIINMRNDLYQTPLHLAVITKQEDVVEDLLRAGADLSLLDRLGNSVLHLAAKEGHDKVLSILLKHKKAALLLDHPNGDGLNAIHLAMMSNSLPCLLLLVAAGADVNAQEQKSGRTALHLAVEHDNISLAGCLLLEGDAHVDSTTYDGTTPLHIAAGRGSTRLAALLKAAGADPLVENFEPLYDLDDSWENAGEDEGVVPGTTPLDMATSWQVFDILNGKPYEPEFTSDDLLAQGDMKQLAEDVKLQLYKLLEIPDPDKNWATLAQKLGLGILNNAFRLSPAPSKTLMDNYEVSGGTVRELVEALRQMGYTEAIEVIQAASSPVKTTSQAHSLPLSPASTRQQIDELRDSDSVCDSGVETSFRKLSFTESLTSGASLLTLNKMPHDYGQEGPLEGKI
T1 sequence (Q00653 whole entry, looked up): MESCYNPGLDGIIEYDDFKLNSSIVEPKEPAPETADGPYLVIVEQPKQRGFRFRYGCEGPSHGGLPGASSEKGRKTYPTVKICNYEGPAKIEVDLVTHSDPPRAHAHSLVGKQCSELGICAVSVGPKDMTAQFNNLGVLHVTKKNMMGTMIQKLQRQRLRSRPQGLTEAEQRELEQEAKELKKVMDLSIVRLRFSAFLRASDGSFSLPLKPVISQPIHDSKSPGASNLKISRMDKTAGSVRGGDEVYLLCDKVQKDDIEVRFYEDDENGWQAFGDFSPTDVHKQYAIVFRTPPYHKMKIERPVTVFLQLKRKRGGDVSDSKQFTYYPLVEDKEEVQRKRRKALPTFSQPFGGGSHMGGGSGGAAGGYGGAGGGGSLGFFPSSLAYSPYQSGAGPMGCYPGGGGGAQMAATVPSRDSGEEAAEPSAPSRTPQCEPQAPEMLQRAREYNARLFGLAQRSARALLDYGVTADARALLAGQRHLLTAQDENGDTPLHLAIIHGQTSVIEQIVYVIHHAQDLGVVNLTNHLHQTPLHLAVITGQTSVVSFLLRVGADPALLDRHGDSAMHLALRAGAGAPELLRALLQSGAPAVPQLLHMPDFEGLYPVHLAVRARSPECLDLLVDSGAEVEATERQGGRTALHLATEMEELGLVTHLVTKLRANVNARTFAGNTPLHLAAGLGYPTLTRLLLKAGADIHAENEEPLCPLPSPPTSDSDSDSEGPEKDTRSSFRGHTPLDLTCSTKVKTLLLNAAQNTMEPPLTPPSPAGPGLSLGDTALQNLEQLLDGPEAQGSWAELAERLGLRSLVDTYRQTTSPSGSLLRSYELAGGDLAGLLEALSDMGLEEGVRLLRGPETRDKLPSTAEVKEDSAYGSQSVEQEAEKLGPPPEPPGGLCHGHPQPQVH
T1 sequence (Q04206 whole entry, looked up): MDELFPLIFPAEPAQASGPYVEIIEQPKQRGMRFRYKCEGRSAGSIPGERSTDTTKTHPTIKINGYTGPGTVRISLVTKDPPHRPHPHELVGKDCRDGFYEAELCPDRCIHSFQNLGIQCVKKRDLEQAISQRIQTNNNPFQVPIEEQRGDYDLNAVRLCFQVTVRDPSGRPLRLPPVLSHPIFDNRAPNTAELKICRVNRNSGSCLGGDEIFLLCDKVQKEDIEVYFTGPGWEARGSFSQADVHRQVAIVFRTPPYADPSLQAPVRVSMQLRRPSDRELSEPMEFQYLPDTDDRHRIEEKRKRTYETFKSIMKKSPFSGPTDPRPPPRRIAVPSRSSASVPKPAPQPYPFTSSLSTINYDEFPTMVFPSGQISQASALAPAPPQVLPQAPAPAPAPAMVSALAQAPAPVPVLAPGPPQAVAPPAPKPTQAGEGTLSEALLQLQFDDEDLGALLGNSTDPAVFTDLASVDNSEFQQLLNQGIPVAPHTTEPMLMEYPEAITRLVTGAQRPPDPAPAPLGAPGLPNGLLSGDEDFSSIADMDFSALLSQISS

For the molecule `CNC(=O)c1cc(Oc2ccc(Nc3nccc(N4CCCCC4)n3)cc2)ccn1`, in assay [1], the IC50 was 0.54 µM. For the same molecule, the inhibition at 20 µM in assay [2] was 63.4%. Further, the Activity is reported as 15.91% in assay [3], 57.49% in assay [4] and 12.9% in assay [6]. Also, in assay [5], the viability at 1.2 µM turned out to be 80.6%. Further, the inhibition entry in assay [7], in [8], in assay [9] and in assay [10] was “Active” each time.
